Values quoted from earlier work in article PMC12525602, “Identification of Selective α-Glucosidase Inhibitors via Virtual Screening with Machine Learning” (Molecules, 2025).
Where two headings read alike, the source gives them in different places.

System: α-glucosidase
Conditions: cited from earlier work
[1] = Table S5 modeling dataset, activity label 1 = active, 0 = inactive
[2] = activity label of the 300-compound modeling dataset, Table S5
[3] = activity label in the 300-compound modeling dataset (Table S5), 1 = active, 0 = inactive
[4] = activity label of the modeling dataset, Table S5

O=C(O)C1(O)C[C@@H](O)C(O)[C@H](O)C1 (some centres unmarked) [compound 91]
activity [1]: 0

O=C(COc1c(I)cc(Cl)c2cccnc12)c1ccc(Br)cc1 [compound 256]
activity [2]: 1

Cc1ccccc1Cn1cc(COc2ccc(/C=N/N=C3\C(=O)Nc4ccccc43)cc2)nn1 [compound 263]
activity [2]: 1

O=c1c(O)c(-c2ccc(O)cc2)oc2cc(O)ccc12 [compound 252]
activity [2]: 1

O=C(O)/C=C/c1ccc(O)cc1 [compound 195]
activity [3]: 1

COc1ccc(Nc2nnc(-c3cc4cc(C#N)ccc4[nH]3)s2)cc1 [compound 40]
activity (activity label of the modeling dataset (Table S5), α-glucosidase, 1 = active, 0 = inactive): 0

Brc1cc(-c2ccccc2)ccc1/C(CSc1nnc2c(n1)[nH]c1ccccc12)=N\c1nnc(-c2ccc3ccccc3c2)s1 [compound 152]
activity [4]: 1

COc1ccc(/C(CSc2nnc3c(n2)[nH]c2ccccc23)=N\c2nnc(-c3cc(Br)ccc3OC)s2)cc1 [compound 173]
activity [4]: 1

N#Cc1c(-c2ccc(Cl)cc2)cc(-c2ccc([N+](=O)[O-])cc2)c(C#N)c1N [compound 103]
activity [1]: 0

COc1cccc(C(=O)C2C(O)c3ccccc3S(=O)(=O)N2CC(=O)Nc2ccccc2Br)c1 (centres unmarked) [compound 187]
activity [3]: 1

C[n+]1cccc(C(=O)[O-])c1 [compound 133]
activity [1]: 0
